# Measured values published in PubChem BioAssay AID248 (DTP/NCI, 2004).
# Values joined by “and” are separate entries in the source; they are usually repeats but may differ in a detail not shown here. Identical values can stand only once. Toxic doses and inconclusive results are not listed. Square brackets hold non-standard residues; d marks the D form. Peptide text beside a SMILES is read from it. * marks the point of attachment. ξ: configuration not given here. Cbz = O=C(OCc1ccccc1)*; ξI = CCC(C)C(N)C(=O)O
# Tested on: L1210 leukemia ip in BDF1 mice, survival T/C
# Assay: NCI In Vivo Anticancer Drug Screen. Data for tumor model L1210 Leukemia (intraperitoneal) in B6D2F1 (BDF1) mice
# Conditions: endpoint: mean survival time, higher = longer survival
# How it was run: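 Transplantable tumor model; survival measured in treated vs vehicle control mice. Value = treated/control.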
# [1] = dose: 100.0 mg/kg/injection, schedule: Q01DX001 (ip), vehicle: carboxymethylcellulose (CMC)
# [2] = dose: 200.0 mg/kg/injection, schedule: Q01DX001 (ip), vehicle: carboxymethylcellulose (CMC)
# [3] = dose: 100.0 mg/kg/injection, schedule: Q04DX002 (ip), vehicle: Klucel (hydroxypropylcellulose) (HPC)
# [4] = dose: 200.0 mg/kg/injection, schedule: Q04DX002 (ip), vehicle: Klucel (hydroxypropylcellulose) (HPC)
# [5] = dose: 400.0 mg/kg/injection, schedule: Q04DX002 (ip), vehicle: Klucel (hydroxypropylcellulose) (HPC)
# [6] = dose: 400.0 mg/kg/injection, schedule: Q01DX001 (ip), vehicle: saline
# [7] = dose: 400.0 mg/kg/injection, schedule: Q01DX009 (ip), vehicle: saline
# [8] = dose: 50.0 mg/kg/injection, schedule: Q01DX001 (ip), vehicle: saline
# [9] = dose: 100.0 mg/kg/injection, schedule: Q01DX001 (ip), vehicle: saline
# [10] = dose: 200.0 mg/kg/injection, schedule: Q01DX001 (ip), vehicle: saline
# [11] = dose: 100.0 mg/kg/injection, schedule: Q01DX009 (ip), vehicle: saline with Tween-80
# [12] = dose: 100.0 mg/kg/injection, schedule: Q04DX003 (ip), vehicle: saline with Tween-80
# [13] = dose: 200.0 mg/kg/injection, schedule: Q01DX009 (ip), vehicle: saline with Tween-80
# [14] = dose: 200.0 mg/kg/injection, schedule: Q04DX003 (ip), vehicle: saline with Tween-80
# [15] = dose: 400.0 mg/kg/injection, schedule: Q04DX003 (ip), vehicle: saline with Tween-80
# [16] = dose: 100.0 mg/kg/injection, schedule: Q04DX003 (ip), vehicle: Klucel (hydroxypropylcellulose) (HPC)
# [17] = dose: 200.0 mg/kg/injection, schedule: Q04DX003 (ip), vehicle: Klucel (hydroxypropylcellulose) (HPC)
# [18] = dose: 400.0 mg/kg/injection, schedule: Q04DX003 (ip), vehicle: Klucel (hydroxypropylcellulose) (HPC)
# [19] = dose: 50.0 mg/kg/injection, schedule: Q04DX003 (ip), vehicle: saline with Tween-80
# [20] = dose: 100.0 mg/kg/injection, schedule: Q01DX009 (ip), vehicle: saline
smiles,measurement,setting,value
CCCCCC#CCCCCl,T/C,"dose: 50.0 mg/kg/injection, schedule: Q01DX001 (ip), vehicle: carboxymethylcellulose (CMC)",101 % of control
same,T/C,"dose: 50.0 mg/kg/injection, schedule: Q01DX009 (ip), vehicle: carboxymethylcellulose (CMC)",95 % of control and 97 % of control
same,T/C,"dose: 50.0 mg/kg/injection, schedule: Q04DX003 (ip), vehicle: carboxymethylcellulose (CMC)",98 % of control
same,T/C,[1],96 % of control
same,T/C,"dose: 100.0 mg/kg/injection, schedule: Q01DX009 (ip), vehicle: carboxymethylcellulose (CMC)",93 % of control and 95 % of control
same,T/C,"dose: 100.0 mg/kg/injection, schedule: Q04DX002 (ip), vehicle: carboxymethylcellulose (CMC)",95 % of control and 97 % of control
same,T/C,"dose: 100.0 mg/kg/injection, schedule: Q04DX003 (ip), vehicle: carboxymethylcellulose (CMC)",102 % of control
same,T/C,[2],91 % of control
same,T/C,"dose: 200.0 mg/kg/injection, schedule: Q01DX009 (ip), vehicle: carboxymethylcellulose (CMC)",95 % of control
same,T/C,"dose: 200.0 mg/kg/injection, schedule: Q04DX002 (ip), vehicle: carboxymethylcellulose (CMC)",100 % of control and 107 % of control
same,T/C,"dose: 200.0 mg/kg/injection, schedule: Q04DX003 (ip), vehicle: carboxymethylcellulose (CMC)",94 % of control
O=C(Cc1ccccc1)Nc1ccc(Cl)c(Cl)c1,T/C,[3],100 % of control
same,T/C,[4],100 % of control
same,T/C,[5],96 % of control
Clc1ccccc1CSc1ncnc2nc[nH]c12,T/C,"dose: 16.0 mg/kg/injection, schedule: Q01DX Z (ip), vehicle: other",96 % of control
same,T/C,"dose: 31.0 mg/kg/injection, schedule: Q01DX Z (ip), vehicle: other",106 % of control
same,T/C,"dose: 40.0 mg/kg/injection, schedule: Q01DX009 (ip), vehicle: saline",120 % of control
same,T/C,"dose: 62.0 mg/kg/injection, schedule: Q01DX Z (ip), vehicle: other",112 % of control
same,T/C,"dose: 70.0 mg/kg/injection, schedule: Q01DX009 (ip), vehicle: saline",110 % of control
same,T/C,"dose: 187.0 mg/kg/injection, schedule: Q01DX Z (ip), vehicle: other",150 % of control
same,T/C,"dose: 265.0 mg/kg/injection, schedule: Q01DX001 (ip), vehicle: acetone",124 % of control
same,T/C,"dose: 265.0 mg/kg/injection, schedule: Q01DX001 (ip), vehicle: saline",107 % of control
same,T/C,"dose: 300.0 mg/kg/injection, schedule: Q01DX009 (ip), vehicle: acetone",94 % of control
same,T/C,"dose: 300.0 mg/kg/injection, schedule: Q01DX009 (ip), vehicle: saline",123 % of control
same,T/C,"dose: 375.0 mg/kg/injection, schedule: Q01DX Z (ip), vehicle: other",103 % of control
same,T/C,[6],110 % of control
same,T/C,[7],115 % of control
same,T/C,"dose: 450.0 mg/kg/injection, schedule: Q01DX009 (ip), vehicle: acetone",91 % of control
same,T/C,"dose: 500.0 mg/kg/injection, schedule: Q01DX Z (ip), vehicle: other",86 % of control
NC(=S)N/N=C/c1cccc(/C=N/NC(N)=S)c1,T/C,[8],98 % of control
same,T/C,[9],93 % of control
same,T/C,[10],93 % of control
same,T/C,[6],93 % of control
CCCC(C)(CO)COC(N)=O (centres undefined),T/C,[9],105 % of control
same,T/C,[10],103 % of control
same,T/C,[6],111 % of control
O=C(COc1ccc(Br)cc1)Nc1ccc(Cl)cc1,T/C,[3],95 % of control
same,T/C,[4],92 % of control
same,T/C,[5],89 % of control
N#CCCNc1ccccc1,T/C,[11],95 % of control
same,T/C,[12],103 % of control
same,T/C,[13],106 % of control
same,T/C,[14],108 % of control
same,T/C,"dose: 400.0 mg/kg/injection, schedule: Q01DX009 (ip), vehicle: saline with Tween-80",86 % of control
same,T/C,[15],105 % of control
CC(C)C(Sc1nc(N)nc2nc[nH]c12)C(=O)O (centres undefined),T/C,[9],98 % of control
same,T/C,"dose: 100.0 mg/kg/injection, schedule: Q01DX009 (ip), vehicle: saline sonified",94 % of control
same,T/C,[16],96 % of control
same,T/C,[10],96 % of control
same,T/C,"dose: 200.0 mg/kg/injection, schedule: Q01DX009 (ip), vehicle: saline sonified",106 % of control
same,T/C,[17],100 % of control
same,T/C,[6],102 % of control
same,T/C,"dose: 400.0 mg/kg/injection, schedule: Q01DX009 (ip), vehicle: saline sonified",100 % of control
same,T/C,[18],98 % of control
CCCCSC(=O)C(O)c1ccccc1 (centres undefined),T/C,[9],105 % of control
same,T/C,[10],104 % of control
same,T/C,[6],105 % of control
Cc1ccc(C)c(N=Nc2ccc(O)cc2)c1,T/C,[11],94 % of control
same,T/C,[13],93 % of control
O=S(=O)(c1ccccc1)c1nn2nnnc2c2ccccc12,T/C,[19],107 % of control
same,T/C,[12],104 % of control
same,T/C,[14],103 % of control
CCOC(=O)c1ccc[n+](CCCl)c1,T/C,"dose: 10.0 mg/kg/injection, schedule: Q01DX Z (ip), vehicle: saline",98 % of control
same,T/C,"dose: 30.0 mg/kg/injection, schedule: Q01DX Z (ip), vehicle: saline",97 % of control
same,T/C,"dose: 100.0 mg/kg/injection, schedule: Q01DX Z (ip), vehicle: saline",90 % of control
CC1(C)CC(Cc2ccccc2)C(=O)O1 (centres undefined),T/C,[16],93 % of control
same,T/C,[17],90 % of control
same,T/C,[18],100 % of control
CCOC(=S)Sc1ccc2c(c1)-c1ccc(F)cc1C2=O,T/C,[1],111 % of control
same,T/C,[2],95 % of control
same,T/C,"dose: 400.0 mg/kg/injection, schedule: Q01DX001 (ip), vehicle: carboxymethylcellulose (CMC)",98 % of control
CC(C)(C)c1cc(C[P+](c2ccc(Cl)cc2)(c2ccc(Cl)cc2)c2ccc(Cl)cc2)cc(C(C)(C)C)c1O,T/C,"dose: 12.5 mg/kg/injection, schedule: Q01DX009 (ip), vehicle: Klucel (hydroxypropylcellulose) (HPC)",97 % of control
same,T/C,"dose: 25.0 mg/kg/injection, schedule: Q01DX009 (ip), vehicle: Klucel (hydroxypropylcellulose) (HPC)",88 % of control
same,T/C,[16],98 % of control
same,T/C,[17],100 % of control
COC(=O)C1CC2C(Cl)=C(Cl)C1(Cl)C2(Cl)Cl (centres undefined),T/C,[20],107 % of control
same,T/C,"dose: 200.0 mg/kg/injection, schedule: Q01DX009 (ip), vehicle: saline",123 % of control
same,T/C,[7],102 % of control
CCC(C)C(C(=O)OC1CCN(C)CC1)c1ccccc1 (centres undefined),T/C,"dose: 25.0 mg/kg/injection, schedule: Q04DX003 (ip), vehicle: saline",102 % of control
same,T/C,"dose: 50.0 mg/kg/injection, schedule: Q01DX009 (ip), vehicle: saline",105 % of control
same,T/C,"dose: 50.0 mg/kg/injection, schedule: Q04DX003 (ip), vehicle: saline",96 % of control
same,T/C,[20],98 % of control
same,T/C,"dose: 100.0 mg/kg/injection, schedule: Q04DX003 (ip), vehicle: saline",97 % of control and 108 % of control
CC(=O)N=C1C=C(NC(C)=O)C(=O)c2ncccc21,T/C,[19],96 % of control
same,T/C,[12],96 % of control
CC1C2CC3C(OC(=O)C13C)C2I (centres undefined),T/C,[9],110 % of control
same,T/C,[10],96 % of control
same,T/C,[6],113 % of control
COc1ccc(OC)c(C(=O)CCCCC(=O)O)c1,T/C,[16],95 % of control
same,T/C,[17],93 % of control
same,T/C,[18],104 % of control
Cc1ccc(S(=O)(=O)CN2CCC(=O)c3ccccc32)cc1,T/C,"dose: 75.0 mg/kg/injection, schedule: Q01DX001 (ip), vehicle: saline",104 % of control
same,T/C,"dose: 150.0 mg/kg/injection, schedule: Q01DX001 (ip), vehicle: saline",101 % of control
same,T/C,"dose: 300.0 mg/kg/injection, schedule: Q01DX001 (ip), vehicle: saline",93 % of control
CC1=CC(=O)OC2(C1)CC1CCC2CN1C (centres undefined),T/C,[8],95 % of control
same,T/C,[9],101 % of control
CCO/C(C)=C(/C#N)c1ccc(Cl)cc1,T/C,"dose: 12.5 mg/kg/injection, schedule: Q01DX009 (ip), vehicle: gum acacia",104 % of control
same,T/C,"dose: 25.0 mg/kg/injection, schedule: Q01DX009 (ip), vehicle: gum acacia",104 % of control
same,T/C,"dose: 50.0 mg/kg/injection, schedule: Q01DX009 (ip), vehicle: gum acacia",102 % of control
CCC(C)C(NC(=O)CNC(=O)OCc1ccccc1)C(=O)O (stereo not drawn) (Cbz-Gly-[ξI]-OH),T/C,[12],107 % of control
same,T/C,[14],97 % of control
same,T/C,[15],98 % of control
CC1(C)C=Cc2ccccc21,T/C,[12],104 % of control
same,T/C,[14],96 % of control
